Key:
Format in all cases: binding
Parameters in all cases: KINOMEscan: ABL1(F317L)-phosphorylated / KINOMEscan: ABL1(H396P)-nonphosphorylated / KINOMEscan: ABL1(H396P)-phosphorylated / KINOMEscan: ABL1(M351T)-phosphorylated / KINOMEscan: ABL1(T315I)-phosphorylated / KINOMEscan: ABL1-nonphosphorylated / KINOMEscan: ABL1-phosphorylated / KINOMEscan: ACVR2A / KINOMEscan: ACVR2B / KINOMEscan: ADCK3 / KINOMEscan: ADCK4 / KINOMEscan: AKT1 / KINOMEscan: AKT3 / KINOMEscan: ALK / KINOMEscan: ARK5 / KINOMEscan: AURKA / KINOMEscan: AURKC / KINOMEscan: BIKE / KINOMEscan: BMPR1A / KINOMEscan: BMPR1B / KINOMEscan: BMX / KINOMEscan: BRK / KINOMEscan: BRSK1 / KINOMEscan: BRSK2 / KINOMEscan: CAMK1 / KINOMEscan: CAMK1D / KINOMEscan: CAMK1G / KINOMEscan: CAMK2A / KINOMEscan: CAMK2B / KINOMEscan: AAK1 / KINOMEscan: CAMK2D / KINOMEscan: CAMK2G / KINOMEscan: ABL1(F317I)-nonphosphorylated / KINOMEscan: ABL1(F317I)-phosphorylated / KINOMEscan: ABL1(F317L)-nonphosphorylated: unit: % Ctrl
Conditions in all cases: Compound Concentration 10 µM
panel of 442 kinases [1] = target: T1, panel of 442 kinases (Homo sapiens, UniProt Q96Q40)
T1 construct: purchased KINOMEscan
Excerpt: (§1) We assessed the selectivity of members of this scaffold using the KINOMEscan methodology across a near comprehensive panel of 442 kinases [[18,27]].

panel of 442 kinases [2] = target: T2, panel of 442 kinases (Homo sapiens, UniProt P51813)
T2 construct: purchased KINOMEscan
T2 sequence (P51813 1-675): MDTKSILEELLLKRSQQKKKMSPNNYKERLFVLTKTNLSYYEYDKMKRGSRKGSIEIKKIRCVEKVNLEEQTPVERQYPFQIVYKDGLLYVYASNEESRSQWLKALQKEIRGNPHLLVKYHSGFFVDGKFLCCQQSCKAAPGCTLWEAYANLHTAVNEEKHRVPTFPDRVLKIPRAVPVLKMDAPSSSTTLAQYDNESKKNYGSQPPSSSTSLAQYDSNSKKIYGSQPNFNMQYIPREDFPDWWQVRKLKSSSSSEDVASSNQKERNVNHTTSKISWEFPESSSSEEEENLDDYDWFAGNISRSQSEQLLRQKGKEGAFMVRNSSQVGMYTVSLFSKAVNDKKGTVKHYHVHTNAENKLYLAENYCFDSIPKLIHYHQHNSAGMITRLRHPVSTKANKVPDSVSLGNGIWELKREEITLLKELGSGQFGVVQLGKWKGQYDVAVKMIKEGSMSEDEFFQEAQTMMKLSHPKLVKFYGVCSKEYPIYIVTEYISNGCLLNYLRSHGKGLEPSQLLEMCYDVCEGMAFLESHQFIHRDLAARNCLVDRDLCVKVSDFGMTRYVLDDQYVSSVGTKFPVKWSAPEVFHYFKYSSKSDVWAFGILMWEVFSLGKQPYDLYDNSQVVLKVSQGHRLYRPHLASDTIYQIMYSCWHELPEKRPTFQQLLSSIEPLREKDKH
Excerpt: as §1

panel of 442 kinases [3] = target: T3, panel of 442 kinases (Homo sapiens, UniProt Q16512)
T3 construct: purchased KINOMEscan
Excerpt: as §1

T1 sequence (Q96Q40 whole entry): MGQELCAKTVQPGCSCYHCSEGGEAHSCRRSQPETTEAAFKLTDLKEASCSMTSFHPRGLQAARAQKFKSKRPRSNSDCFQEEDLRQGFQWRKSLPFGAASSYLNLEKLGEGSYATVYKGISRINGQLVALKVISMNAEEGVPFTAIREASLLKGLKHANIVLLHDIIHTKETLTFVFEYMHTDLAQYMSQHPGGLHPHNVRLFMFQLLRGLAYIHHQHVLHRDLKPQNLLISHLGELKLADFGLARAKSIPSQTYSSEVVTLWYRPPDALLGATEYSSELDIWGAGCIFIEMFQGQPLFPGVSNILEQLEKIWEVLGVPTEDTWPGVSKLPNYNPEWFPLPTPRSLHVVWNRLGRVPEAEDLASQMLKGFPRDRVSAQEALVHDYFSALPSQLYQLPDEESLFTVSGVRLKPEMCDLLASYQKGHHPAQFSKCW
T3 sequence (Q16512 whole entry): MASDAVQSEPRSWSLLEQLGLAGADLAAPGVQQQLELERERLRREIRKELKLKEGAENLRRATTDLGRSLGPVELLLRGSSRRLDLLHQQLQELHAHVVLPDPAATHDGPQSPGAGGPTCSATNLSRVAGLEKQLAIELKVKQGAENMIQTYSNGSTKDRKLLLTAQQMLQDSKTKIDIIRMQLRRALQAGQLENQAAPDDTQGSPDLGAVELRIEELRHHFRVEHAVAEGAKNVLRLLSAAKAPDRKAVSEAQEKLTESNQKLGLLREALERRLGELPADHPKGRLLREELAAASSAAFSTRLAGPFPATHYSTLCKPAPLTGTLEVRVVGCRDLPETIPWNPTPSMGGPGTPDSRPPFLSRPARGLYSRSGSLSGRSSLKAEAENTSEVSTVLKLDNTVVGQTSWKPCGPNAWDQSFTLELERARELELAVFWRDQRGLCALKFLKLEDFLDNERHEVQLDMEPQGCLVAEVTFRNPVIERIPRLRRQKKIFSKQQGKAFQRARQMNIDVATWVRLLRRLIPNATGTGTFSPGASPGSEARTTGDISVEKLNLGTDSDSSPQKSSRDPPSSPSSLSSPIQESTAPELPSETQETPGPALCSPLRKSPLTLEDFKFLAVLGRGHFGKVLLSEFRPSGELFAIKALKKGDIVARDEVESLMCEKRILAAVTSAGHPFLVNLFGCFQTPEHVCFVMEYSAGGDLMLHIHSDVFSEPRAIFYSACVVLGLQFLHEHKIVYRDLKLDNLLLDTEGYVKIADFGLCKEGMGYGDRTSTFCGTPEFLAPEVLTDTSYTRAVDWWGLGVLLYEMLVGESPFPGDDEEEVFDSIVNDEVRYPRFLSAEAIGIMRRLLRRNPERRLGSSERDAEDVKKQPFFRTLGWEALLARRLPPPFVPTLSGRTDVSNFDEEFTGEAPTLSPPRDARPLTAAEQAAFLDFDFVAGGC

Q: With `CCOc1cc(C(=O)N2CCC(N3CCN(C)CC3)CC2)ccc1Nc1ncc2c(n1)N(C1CCCC1)c1ccccc1C(=O)N2C` [Compound 26] as the molecule, how does the “KINOMEscan: PFTAIRE2” value (panel of 442 kinases [1]) read?
A: 100

Q: What about the “KINOMEscan: BMX” value (panel of 442 kinases [2]) of the same molecule?
A: 100

Q: And the “KINOMEscan: PKN1” value (panel of 442 kinases [3])?
A: 100

Q: Which results are given for `COc1cc(C(=O)N2CCC(N3CCN(C)CC3)CC2)ccc1Nc1ncc2c(n1)N(C1CCCC1)c1ccccc1C(=O)N2C` [Compound 25, 11-cyclopentyl-2-((2-methoxy-4-(4-(4-methylpiperazin-1-yl)piperidine-1-carbonyl)phenyl)amino)-5-methyl-5H-benzo[e]pyrimido[5,4-b][1,4]diazepin-6(11H)-one]?
A: KINOMEscan: PFTAIRE2 (panel of 442 kinases [1]): 99; KINOMEscan: BMX (panel of 442 kinases [2]): 91; KINOMEscan: PKN1 (panel of 442 kinases [3]): 100

Q: Which “KINOMEscan: BMX” value (panel of 442 kinases [2]) does the source give for `COc1cc(C(=O)N2CCC(N3CCN(C)CC3)CC2)ccc1Nc1ncc2c(n1)N1CCc3cccc(c31)C(=O)N2C` [Compound 24] here?
A: 71

Q: Which “KINOMEscan: PFTAIRE2” value (panel of 442 kinases [1]) does the source give for `COc1cc(C(=O)N2CCC(N3CCN(C)CC3)CC2)ccc1Nc1ncc2c(n1)N(C)c1ccccc1C(=O)N2C` [15 (LRRK2-IN-1)] here?
A: 100

Q: What about the “KINOMEscan: BMX” value (panel of 442 kinases [2]) of the same molecule?
A: 87

Q: What about the “KINOMEscan: PKN1” value (panel of 442 kinases [3]) of the same molecule?
A: 100

From publication PMC3914206
